What follows are compounds tested against cGMP-specific 3',5'-cyclic phosphodiesterase (Homo sapiens, UniProt O76074) (assay: Inhibition of PDE5 (unknown origin)).
O=c1c(NCC2CCOCC2)nc2ccc(-c3cnc(O)nc3)nc2n1CC1CCCCC1 was tested, and the IC50 was 2.88 nM. For O=c1c(NCCN2CCOCC2)nc2ccc(-c3ccc(O)nc3)nc2n1CC1CCCCC1, the IC50 was 537 nM. For COc1ccc(-c2ccc3nc(NCC(=O)N(C)C)c(=O)n(CC4CCCCC4)c3n2)cn1, the IC50 was 14.5 nM. With COc1ccc(-c2ccc3nc(NCC4CCOCC4)c(=O)n(CC4CCCCC4)c3n2)cn1 the IC50 was 2.29 nM. Work on COc1ccc(-c2ccc3nc(NCCN4CCOCC4)c(=O)n(CC4CCCCC4)c3n2)cn1 yielded an IC50 of 26.9 nM. Work on O=c1c(NCC2CCOCC2)nc2ccc(-c3ccncc3)nc2n1CC1CCCCC1 yielded an IC50 of 33.9 nM. In the case of Cc1noc(C)c1-c1ccc2nc(NCCN3CCOCC3)c(=O)n(CC3CCCCC3)c2n1, the IC50 is reported as 36.3 nM.

Reference: ChEMBL document CHEMBL3045064, “3D-QSAR of amino-substituted pyrido[3,2B]pyrazinones as PDE-5 inhibitors” (Med Chem Res, 2012)
